{"source": "patent US20190041383A1", "about": "“METHOD FOR PREPARING SENESCENT MELANOCYTES, CELLS PREPARED BY METHOD, AND METHOD FOR SCREENING FOR SENESCENCE-ALLEVIATING MATERIAL BY USING CELLS” (AMOREPACIFIC CORPORATION, priority 2015, published 2019)", "type_in_all_cases": "cell-based, human", "key": {"[1]": {"tested_on": "melanocytes irradiated with UVB at 20 mJ/cm^2 two times (senescent melanocytes)", "assay": "β-galactosidase activity in senescent melanocytes after treatment with whitening material", "conditions": "30 μM, medium changed every 3 days (4 times) from 48 h after UVB, read after two weeks, vs vehicle (DMSO) control; p<0.05 (FIG. 5a)", "description": "Human primary melanocytes (Life Technologies, CA, USA) were cultured in a 5% CO2 incubator at room temperature by using M-254 medium (Gibco BRL, NY, USA) supplemented with human melanocyte growth supplement (HMGS) (Gibco BRL, NY, USA), placed on a 100 mm culture dish so that the number of cells was 2×10^5, allowed to attach to the dish wall for the night, and irradiated with UVB at a strength of 11 mJ/cm^2, 20 mJ/cm^2, and 30 mJ/cm^2 two times at an interval of 24 hours.\nAfter UVB irradiation under the conditions of Example 1, β-galactosidase activity, which is a representative senescence index of cell, has been measured and it has been confirmed that the activity increased in proportion to the strength of UVB irradiated (FIG. 3a).\nThe cells determined in the most proper senescent state through the above-described Examples, namely, the cells prepared by irradiating the melanocytes with UVB at a strength of 20 mJ/cm^2 two times at an interval of 24 hours were cultured from the 48th hour after the UV ray irradiation in a medium containing Material A (melasolv, 30 μM) of a representative whitening material while changing the medium at an interval of 3 days (4 times in total). After two weeks, the β-galactosidase activity and the melanin content were compared to those of a control group (vehicle (DMSO) treated) (FIG. 5). […]"}, "[2]": {"tested_on": "melanocytes irradiated with UVB at 20 mJ/cm^2 two times (senescent pigmentation model)", "assay": "melanin content in senescent melanocytes after treatment with whitening material", "conditions": "30 μM, medium changed every 3 days (4 times) from 48 h after UVB, read after two weeks, vs vehicle (DMSO) control; p<0.05 (FIG. 5b)", "description": "Human primary melanocytes (Life Technologies, CA, USA) were cultured in a 5% CO2 incubator at room temperature by using M-254 medium (Gibco BRL, NY, USA) supplemented with human melanocyte growth supplement (HMGS) (Gibco BRL, NY, USA), placed on a 100 mm culture dish so that the number of cells was 2×10^5, allowed to attach to the dish wall for the night, and irradiated with UVB at a strength of 11 mJ/cm^2, 20 mJ/cm^2, and 30 mJ/cm^2 two times at an interval of 24 hours. The melanocytes were irradiated with UVB at a strength of 11 mJ/cm^2, 20 mJ/cm^2, and 30 mJ/cm^2, respectively, two times, cultured for 2 weeks, detached from the culture dish and counted, and the same number of cells were collected in a microtube, disrupted by adding RIPA assay buffer (Millipore, 20-188) thereto, and subjected to the centrifugation at 13,500 rpm for 30 minutes to obtain a precipitate. The precipitate was dissolved in a 1N sodium hydroxide (NaOH) solution, and the colors were compared to one another (FIG. 4a), and the absorbance was measured at 450 nm to compare the content of melanin (FIG. 4b). […]"}, "p16 and p21": {"tested_on": "p16 and p21", "assay": "p16 and p21 mRNA expression (Q-PCR) in senescent melanocytes after treatment with whitening material", "conditions": "treated for 2 weeks from 48 h after final UVB irradiation, four times at an interval of 3 days; p<0.05 / p<0.01 (FIG. 6)", "description": "Human primary melanocytes (Life Technologies, CA, USA) were cultured in a 5% CO2 incubator at room temperature by using M-254 medium (Gibco BRL, NY, USA) supplemented with human melanocyte growth supplement (HMGS) (Gibco BRL, NY, USA), placed on a 100 mm culture dish so that the number of cells was 2×10^5, allowed to attach to the dish wall for the night, and irradiated with UVB at a strength of 11 mJ/cm^2, 20 mJ/cm^2, and 30 mJ/cm^2 two times at an interval of 24 hours. cDNA was prepared by obtaining RNA from cells 2 weeks after being irradiated with UVB at a strength of 20 mJ/cm^2 two times at an interval of 24 hours, and a change in mRNA level was measured by Q-PCR (Applied biosystems, 7500 Fast) by using p16 and p21 specific primers. As the Q-PCR experiment, a cycle at 95° C. for 15 seconds and at 60° C. for 60 seconds was repeatedly conducted 40 times in total, and the relative value of an increase in gene expression as compared to that of a control group was measured."}}, "data": [{"smiles": "COc1cc(/C=C/C(=O)Oc2cc(C)ccc2C(C)C)cc(OC)c1OC", "note": "[Material A, melasolv]", "values": [{"measurement": "β-galactosidase activity", "setting": "[1]", "result": "decreases"}, {"measurement": "melanin content", "setting": "[2]", "result": "significantly decreases to the level of that of the control group"}, {"measurement": "increased gene expression (p16 and p21)", "setting": "p16 and p21", "result": "significantly inhibited"}]}]}
